Measurements: patent US10335372B2, “Compositions with modified nucleases targeted to viral nucleic acids and methods of use for prevention and treatment of viral diseases” (priority 2004, dated 2019)

Test system: FMDV of O-type
Conditions: guinea pig, in vivo

With “RNase: recombinant / wild-type human RNase I (Examples 22, 30, 31)” the “resistance to FMD on repeated infection” value was “resistant to FMD following subsequent repeated infection”.
